Measured values published in PubChem BioAssay (NCI).
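A five-concentration, 48-hour dose response in 96-well plates underlies each endpoint, interpolated linearly between surrounding concentrations. TGI: total growth inhibition.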

Tests used:
Assay in all cases: NCI tumour cell line growth inhibition, 48 h
[1] = test system: SW-620 colon
[2] = test system: NCI-H460 lung
[3] = test system: P388 leukemia
[4] = test system: K-562 leukemia
[5] = test system: U251 CNS
[6] = test system: RPMI-8226 leukemia
[7] = test system: LOX IMVI melanoma
[8] = test system: KM12 colon
[9] = test system: SF-539 CNS
[10] = test system: SNB-19 CNS
[11] = test system: DLD-1 colon
[12] = test system: SNB-75 CNS
[13] = test system: SK-MEL-28 melanoma
[14] = test system: UACC-62 melanoma
[15] = test system: A498 renal
[16] = test system: MALME-3M melanoma
[17] = test system: COLO 205 colon
[18] = test system: KM20L2 colon
[19] = test system: DMS 273 small cell lung
[20] = test system: SK-MEL-2 melanoma
[21] = test system: HCC-2998 colon
[22] = test system: HCT-116 colon
[23] = test system: HCT-15 colon
[24] = test system: SK-MEL-5 melanoma
[25] = test system: HOP-92 NSCLC
[26] = test system: SN12K1 renal
[27] = test system: IGROV1 ovarian
[28] = test system: HOP-62 NSCLC
[29] = test system: DMS 114 small cell lung
[30] = test system: MCF7 breast
[31] = test system: A549 NSCLC
[32] = test system: SF-295 CNS
[33] = test system: EKVX NSCLC
[34] = test system: SN12C renal
[35] = test system: NCI-H522 lung
[36] = test system: HT29 colon
[37] = test system: UACC-257 melanoma
[38] = test system: P388/ADR leukemia
[39] = test system: NCI-H23 lung
[40] = test system: NCI/ADR-RES ovarian
[41] = test system: SK-OV-3 ovarian
[42] = test system: NCI-H226 lung
[43] = test system: OVCAR-8 ovarian
[44] = test system: HOP-18 NSCLC
[45] = test system: OVCAR-3 ovarian
[46] = test system: M19-MEL melanoma
[47] = test system: UO-31 renal
[48] = test system: CCRF-CEM leukemia
[49] = test system: RXF 393 renal
[50] = test system: OVCAR-5 ovarian
[51] = test system: SF-268 CNS
[52] = test system: MOLT-4 leukemia
[53] = test system: OVCAR-4 ovarian
[54] = test system: HL-60(TB) leukemia
[55] = test system: SNB-78 CNS
[56] = test system: CAKI-1 renal
[57] = test system: XF 498 CNS

With `CC[C@@]1(O)C[C@H](OC2CC(N(C)C)C(OC3CC(O)C(OC4CC(O)C(O)C(C)O4)C(C)O3)C(C)O2)c2c(cc3c(c2O)C(=O)c2c(O)ccc(O)c2C3=O)[C@H]1C(=O)OC` (stereo not given in full) the TGI [1] was 1.94 µM, the TGI [2] was 0.103 µM and the TGI [3] was 0.0892 µM. It also gave a TGI [4] of 1.7 µM, a TGI [5] of 3.18 µM and a TGI [6] of 0.385 µM. For the same molecule, the TGI [7] was 3.67 µM, the TGI [8] was 3.03 µM and the TGI [9] was 0.341 µM. It also gave a TGI [10] of 4.3 µM, a TGI [11] of 3.59 µM and a TGI [12] of 0.39 µM. The TGI [13] was 0.293 µM, the TGI [14] was 0.106 µM and the TGI [15] was 0.0891 µM. The TGI [16] was 0.196 µM, the TGI [17] was 0.39 µM and the TGI [18] was 2.62 µM. For the same molecule, the TGI [19] was 0.482 µM, the TGI [20] was 0.124 µM and the TGI [21] was 0.662 µM. It also gave a TGI [22] of 0.118 µM, a TGI [23] of 2.66 µM and a TGI [24] of 0.135 µM. The TGI [25] was 0.867 µM, the TGI [26] was 0.0678 µM and the TGI [27] was 3.84 µM. The TGI [28] was 0.5 µM, the TGI [29] was 0.959 µM and the TGI [30] was 0.959 µM. The TGI [31] was 19.8 µM, the TGI [32] was 0.654 µM and the TGI [33] was 0.982 µM. The TGI [34] was 2.09 µM, the TGI [35] was 0.153 µM and the TGI [36] was 0.871 µM. For the same molecule, the TGI [37] was 0.184 µM, the TGI [38] was 2.23 µM and the TGI [39] was 0.314 µM. The TGI [40] was 10.2 µM, the TGI [41] was 3.04 µM and the TGI [42] was 0.203 µM. It also gave a TGI [43] of 1.15 µM, a TGI [44] of 1.32 µM and a TGI [45] of 0.347 µM. It also gave a TGI [46] of 0.21 µM, a TGI [47] of 1.22 µM and a TGI [48] of 1.81 µM. It also gave a TGI [49] of 0.112 µM, a TGI [50] of 3.1 µM and a TGI [51] of 1.49 µM. It also gave a TGI [52] of 0.103 µM, a TGI [53] of 0.564 µM and a TGI [54] of 1.37 µM. The TGI [55] was 2.1 µM, the TGI [56] was 0.142 µM and the TGI [57] was 0.225 µM.
With `CN(C)CCNC(=O)c1ccc(Cl)c2ccc(-c3ccccc3)nc12` the TGI [1] was 14.2 µM, the TGI [2] was 8.04 µM and the TGI [4] was 6.15 µM. For the same molecule, the TGI [5] was 12.7 µM, the TGI [6] was 7.83 µM and the TGI [8] was 24.2 µM. The TGI [9] was 12.8 µM, the TGI [10] was 17.1 µM and the TGI [11] was 12.7 µM. The TGI [12] was 12.3 µM, the TGI [13] was 14.6 µM and the TGI [14] was 7.83 µM. The TGI [15] was 12.8 µM, the TGI [16] was 10.6 µM and the TGI [17] was 4.85 µM. It also gave a TGI [18] of 12.9 µM, a TGI [19] of 10.9 µM and a TGI [20] of 20.1 µM. The TGI [21] was 16.6 µM, the TGI [22] was 11.3 µM and the TGI [23] was 14.5 µM. For the same molecule, the TGI [24] was 4.82 µM, the TGI [25] was 7.52 µM and the TGI [26] was 9.69 µM. The TGI [27] was 14.1 µM, the TGI [28] was 11 µM and the TGI [30] was 16.8 µM. The TGI [31] was 13 µM, the TGI [32] was 16.5 µM and the TGI [34] was 15.5 µM. For the same molecule, the TGI [35] was 14.9 µM, the TGI [36] was 11.9 µM and the TGI [37] was 14.2 µM. For the same molecule, the TGI [38] was 5.17 µM, the TGI [39] was 16.6 µM and the TGI [40] was 12.1 µM. The TGI [41] was 17.4 µM, the TGI [42] was 7.3 µM and the TGI [43] was 12.3 µM. For the same molecule, the TGI [44] was 13.5 µM, the TGI [45] was 19.4 µM and the TGI [46] was 13.4 µM. The TGI [47] was 5.21 µM, the TGI [48] was 10.8 µM and the TGI [49] was 19 µM. The TGI [50] was 13.3 µM, the TGI [51] was 17.5 µM and the TGI [52] was 5.72 µM. For the same molecule, the TGI [53] was 14 µM, the TGI [54] was 7.65 µM and the TGI [55] was 20.5 µM. It also gave a TGI [56] of 12.9 µM and a TGI [57] of 11 µM.
